In brackets after ≈: the same amount, converted by molar mass. Blank lines part the entries; values can stand above or below the compound they belong to.
What was measured:
Experiment in all cases: In vitro antibacterial evaluation: minimum inhibitory concentration (MIC), broth dilution method
Type in all cases: cell-based
Conditions in all cases: 18 hours at 35° C.
Streptococcus sp. = test system: Streptococcus sp.
How it was run: (§1)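 Inoculum: 5×10^5 CFU/mL. Range: 64-0.06 μg/mL. Medium: Muller-Hinton II […]; NCCLS M7-A2 broth dilution. Endpoint: lowest concentration inhibiting growth. Strains include methicillin-, penicillin- and/or vancomycin-resistant clinical isolates.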

Escherichia coli = test system: Escherichia coli
How it was run: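 An MIC is reported for each organism as the least concentration giving inhibition, using broth dilution over 64-0.06 μg/mL with a 5×10^5 CFU/mL inoculum.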

Enterococcus sp. = test system: Enterococcus sp.
How it was run: as §1

Staphylococcus sp. = test system: Staphylococcus sp.
How it was run: as §1

[1] = Streptococcus agalactiae (GC 4564)
[2] = Streptococcus pneumoniae (ATCC 6301)
[3] = Streptococcus pneumoniae (GC 1894)
[4] = Streptococcus pneumoniae (GC 4565)
[5] = Streptococcus pyogenes (GC 4563)
[6] = broth dilution, inoculum 5×10^5 CFU/mL
[7] = Enterococcus faecalis (GC 2242)
[8] = Enterococcus faecalis (GC 2691)
[9] = Enterococcus faecalis (GC 3059)

MIC Streptococcus agalactiae (GC 4564) (Streptococcus sp.; [1]): 0.25 µg/mL (≈ 0.164 µM)
MIC Streptococcus pneumoniae (ATCC 6301) (Streptococcus sp.; [2]): <0.06 µg/mL
MIC Streptococcus pneumoniae (GC 1894) (Streptococcus sp.; [3]): <0.06 µg/mL
MIC Streptococcus pneumoniae (GC 4565) (Streptococcus sp.; [4]): <0.06 µg/mL
MIC Streptococcus pyogenes (GC 4563) (Streptococcus sp.; [5]): 0.25 µg/mL (≈ 0.164 µM)
MIC Streptococcus agalactiae (GC 4564) (Streptococcus sp.; [6]): 0.25 µg/mL (≈ 0.164 µM)
MIC Streptococcus pneumoniae (ATCC 6301) (Streptococcus sp.; [6]): <0.06 µg/mL
MIC Streptococcus pneumoniae (GC 1894) (Streptococcus sp.; [6]): <0.06 µg/mL
MIC Streptococcus pneumoniae (GC 4565) (Streptococcus sp.; [6]): <0.06 µg/mL
MIC Streptococcus pyogenes (GC 4563) (Streptococcus sp.; [6]): 0.25 µg/mL (≈ 0.164 µM)
MIC Escherichia coli (ATCC 25922) (Escherichia coli): >64 µg/mL
MIC Escherichia coli (GC 4559) (Escherichia coli): >64 µg/mL
MIC Escherichia coli (GC 4560) (Escherichia coli): 1 µg/mL (≈ 0.657 µM)
MIC Enterococcus avium (GC 4558) (Enterococcus sp.): 4 µg/mL (≈ 2.63 µM)
MIC Enterococcus faecalis (ATCC 29212) (Enterococcus sp.): 4 µg/mL (≈ 2.63 µM)
MIC Enterococcus faecalis (GC 2242) (Enterococcus sp.; [7]): 4 µg/mL (≈ 2.63 µM)
MIC Enterococcus faecalis (GC 2691) (Enterococcus sp.; [8]): 4 µg/mL (≈ 2.63 µM)
MIC Enterococcus faecalis (GC 3059) (Enterococcus sp.; [9]): 4 µg/mL (≈ 2.63 µM)
MIC Enterococcus faecalis (GC 4552) (Enterococcus sp.): 4 µg/mL (≈ 2.63 µM)
MIC Enterococcus faecalis (GC 4553) (Enterococcus sp.): 4 µg/mL (≈ 2.63 µM)
MIC Enterococcus faecalis (GC 4554) (Enterococcus sp.): 4 µg/mL (≈ 2.63 µM)
MIC Enterococcus faecalis (GC 6189) (Enterococcus sp.): 4 µg/mL (≈ 2.63 µM)
MIC Enterococcus faecium (GC 2243) (Enterococcus sp.): 4 µg/mL (≈ 2.63 µM)
MIC Enterococcus faecium (GC 4556) (Enterococcus sp.): 4 µg/mL (≈ 2.63 µM)
MIC Enterococcus faecium (GC 4557) (Enterococcus sp.): 2 µg/mL (≈ 1.31 µM)
MIC Enterococcus faecalis (GC 2242) (Enterococcus sp.; [6]): 4 µg/mL (≈ 2.63 µM)
MIC Enterococcus faecalis (GC 2691) (Enterococcus sp.; [6]): 4 µg/mL (≈ 2.63 µM)
MIC Enterococcus faecalis (GC 3059) (Enterococcus sp.; [6]): 4 µg/mL (≈ 2.63 µM)
MIC Coagulase Negative Staphylococcus (GC 4547) (Staphylococcus sp.): 2 µg/mL (≈ 1.31 µM)
MIC Coagulase Negative Staphylococcus (GC 4548) (Staphylococcus sp.): 1 µg/mL (≈ 0.657 µM)
MIC Coagulase Negative Staphylococcus (GC 4549) (Staphylococcus sp.): 1 µg/mL (≈ 0.657 µM)
MIC Coagulase Negative Staphylococcus (GC 4551) (Staphylococcus sp.): 2 µg/mL (≈ 1.31 µM)
MIC Coagulase Negative Staphylococcus (GC 6257) (Staphylococcus sp.): 1 µg/mL (≈ 0.657 µM)
MIC Staphylococcus aureus (ATCC 29213) (Staphylococcus sp.): 2 µg/mL (≈ 1.31 µM)
MIC Staphylococcus aureus (GC 1131) (Staphylococcus sp.): 2 µg/mL (≈ 1.31 µM)
MIC Staphylococcus aureus (GC 3051) (Staphylococcus sp.): 1 µg/mL (≈ 0.657 µM)
MIC Staphylococcus aureus (GC 3053) (Staphylococcus sp.): 2 µg/mL (≈ 1.31 µM)
MIC Staphylococcus aureus (GC 4541) (Staphylococcus sp.): 4 µg/mL (≈ 2.63 µM)
MIC Staphylococcus aureus (GC 4542) (Staphylococcus sp.): 2 µg/mL (≈ 1.31 µM)
MIC Staphylococcus aureus (GC 4544) (Staphylococcus sp.): 2 µg/mL (≈ 1.31 µM)
MIC Staphylococcus aureus (GC 4545) (Staphylococcus sp.): 2 µg/mL (≈ 1.31 µM)
MIC Staphylococcus aureus-SMITH (GC 4543) (Staphylococcus sp.): 2 µg/mL (≈ 1.31 µM)
Structure (SMILES): COc1ccc(COCC2OC(OC3C(CO)OC(Oc4ccc(CC5NC(=O)C(C(C)c6ccccc6)NC(=O)CNC(=O)C(CO)NC(=O)C(C(O)C6CNC(=N)N6C6OC(CO)C(O)C(O)C6O)NC(=O)C(C(O)C6CNC(=N)N6)NC5=O)cc4)C(O)C3O)C(O)C(O)C2O)cc1OCc1ccccc1 (centres unmarked) [Example 239]
MIC Staphylococcus haemolyticus (GC 4546) (Staphylococcus sp.): 1 µg/mL (≈ 0.657 µM)

MIC Streptococcus agalactiae (GC 4564) (Streptococcus sp.; [1]): 1 µg/mL (≈ 0.657 µM)
MIC Streptococcus pneumoniae (ATCC 6301) (Streptococcus sp.; [2]): 0.25 µg/mL (≈ 0.164 µM)
MIC Streptococcus pneumoniae (GC 1894) (Streptococcus sp.; [3]): <0.06 µg/mL
MIC Streptococcus pneumoniae (GC 4565) (Streptococcus sp.; [4]): 0.25 µg/mL (≈ 0.164 µM)
MIC Streptococcus pyogenes (GC 4563) (Streptococcus sp.; [5]): 2 µg/mL (≈ 1.31 µM)
MIC Streptococcus agalactiae (GC 4564) (Streptococcus sp.; [6]): 1 µg/mL (≈ 0.657 µM)
MIC Streptococcus pneumoniae (ATCC 6301) (Streptococcus sp.; [6]): 0.25 µg/mL (≈ 0.164 µM)
MIC Streptococcus pneumoniae (GC 1894) (Streptococcus sp.; [6]): <0.06 µg/mL
MIC Streptococcus pneumoniae (GC 4565) (Streptococcus sp.; [6]): 0.25 µg/mL (≈ 0.164 µM)
MIC Streptococcus pyogenes (GC 4563) (Streptococcus sp.; [6]): 2 µg/mL (≈ 1.31 µM)
MIC Escherichia coli (ATCC 25922) (Escherichia coli): >64 µg/mL
MIC Escherichia coli (GC 4559) (Escherichia coli): >64 µg/mL
MIC Escherichia coli (GC 4560) (Escherichia coli): 2 µg/mL (≈ 1.31 µM)
MIC Enterococcus avium (GC 4558) (Enterococcus sp.): 8 µg/mL (≈ 5.26 µM)
MIC Enterococcus faecalis (ATCC 29212) (Enterococcus sp.): 8 µg/mL (≈ 5.26 µM)
MIC Enterococcus faecalis (GC 2242) (Enterococcus sp.; [7]): 8 µg/mL (≈ 5.26 µM)
MIC Enterococcus faecalis (GC 2691) (Enterococcus sp.; [8]): 8 µg/mL (≈ 5.26 µM)
MIC Enterococcus faecalis (GC 3059) (Enterococcus sp.; [9]): 8 µg/mL (≈ 5.26 µM)
MIC Enterococcus faecalis (GC 4552) (Enterococcus sp.): 8 µg/mL (≈ 5.26 µM)
MIC Enterococcus faecalis (GC 4553) (Enterococcus sp.): 8 µg/mL (≈ 5.26 µM)
MIC Enterococcus faecalis (GC 4554) (Enterococcus sp.): 16 µg/mL (≈ 10.5 µM)
MIC Enterococcus faecalis (GC 6189) (Enterococcus sp.): 8 µg/mL (≈ 5.26 µM)
MIC Enterococcus faecium (GC 2243) (Enterococcus sp.): 8 µg/mL (≈ 5.26 µM)
MIC Enterococcus faecium (GC 4556) (Enterococcus sp.): 8 µg/mL (≈ 5.26 µM)
MIC Enterococcus faecium (GC 4557) (Enterococcus sp.): 4 µg/mL (≈ 2.63 µM)
MIC Enterococcus faecalis (GC 2242) (Enterococcus sp.; [6]): 8 µg/mL (≈ 5.26 µM)
MIC Enterococcus faecalis (GC 2691) (Enterococcus sp.; [6]): 8 µg/mL (≈ 5.26 µM)
MIC Enterococcus faecalis (GC 3059) (Enterococcus sp.; [6]): 8 µg/mL (≈ 5.26 µM)
MIC Coagulase Negative Staphylococcus (GC 4547) (Staphylococcus sp.): 2 µg/mL (≈ 1.31 µM)
MIC Coagulase Negative Staphylococcus (GC 4548) (Staphylococcus sp.): 1 µg/mL (≈ 0.657 µM)
MIC Coagulase Negative Staphylococcus (GC 4549) (Staphylococcus sp.): 2 µg/mL (≈ 1.31 µM)
MIC Coagulase Negative Staphylococcus (GC 4551) (Staphylococcus sp.): 2 µg/mL (≈ 1.31 µM)
MIC Coagulase Negative Staphylococcus (GC 6257) (Staphylococcus sp.): 2 µg/mL (≈ 1.31 µM)
MIC Staphylococcus aureus (ATCC 29213) (Staphylococcus sp.): 4 µg/mL (≈ 2.63 µM)
MIC Staphylococcus aureus (GC 1131) (Staphylococcus sp.): 4 µg/mL (≈ 2.63 µM)
MIC Staphylococcus aureus (GC 3051) (Staphylococcus sp.): 2 µg/mL (≈ 1.31 µM)
MIC Staphylococcus aureus (GC 3053) (Staphylococcus sp.): 4 µg/mL (≈ 2.63 µM)
MIC Staphylococcus aureus (GC 4541) (Staphylococcus sp.): 4 µg/mL (≈ 2.63 µM)
MIC Staphylococcus aureus (GC 4542) (Staphylococcus sp.): 4 µg/mL (≈ 2.63 µM)
MIC Staphylococcus aureus (GC 4544) (Staphylococcus sp.): 4 µg/mL (≈ 2.63 µM)
MIC Staphylococcus aureus (GC 4545) (Staphylococcus sp.): 4 µg/mL (≈ 2.63 µM)
MIC Staphylococcus aureus-SMITH (GC 4543) (Staphylococcus sp.): 2 µg/mL (≈ 1.31 µM)
Structure (SMILES): COc1ccc(COC2C(CO)OC(OC3C(CO)OC(Oc4ccc(CC5NC(=O)C(C(C)c6ccccc6)NC(=O)CNC(=O)C(CO)NC(=O)C(C(O)C6CNC(=N)N6C6OC(CO)C(O)C(O)C6O)NC(=O)C(C(O)C6CNC(=N)N6)NC5=O)cc4)C(O)C3O)C(O)C2O)cc1OCc1ccccc1 (stereo not drawn) [Example 239a, Cyclo[glycyl-β-methylphenylalanyl-O-[4-O-[4-O-[4-methoxy-3-(phenylmethoxy)benzyl]-hexopyranosyl]hexopyranosyl]tyrosyl-3-(2-iminoimidazolidin-4-yl)seryl-3-(3-hexopyranosyl-2-iminoimidazolidin-4-yl)serylseryl]]
MIC Staphylococcus haemolyticus (GC 4546) (Staphylococcus sp.): 2 µg/mL (≈ 1.31 µM)

From patent US8247211B2, “Glycopeptide antibiotics” (American Cyanamid Company, priority 2001, dated 2012)
